Patent US7812053B2, “4-((phenoxyalkyl)thio)-phenoxyacetic acids and analogs” (Janssen Pharmaceuticals NV, priority 2004, dated 2010)
Where “and” joins values, the source holds several entries; their conditions need not be identical. Equal entries are not always repeated.

What was measured:
[1] = biological target: T1, PPARδ ligand binding domain fused to the yeast GAL4 DNA binding domain (Homo sapiens, UniProt Q03181); experiment: Transfection assay for PPAR receptors (GAL4-LBD luciferase reporter), PPAR delta; format: cell-based; settings: HEK293 cells, GAL4 (UAS) luciferase reporter, 18-24 hrs; multiple values = multiple measurements
T1 construct: expressed in transfected cells; host or cells: HEK293
T1 sequence (Q03181 211-439 limits assumed): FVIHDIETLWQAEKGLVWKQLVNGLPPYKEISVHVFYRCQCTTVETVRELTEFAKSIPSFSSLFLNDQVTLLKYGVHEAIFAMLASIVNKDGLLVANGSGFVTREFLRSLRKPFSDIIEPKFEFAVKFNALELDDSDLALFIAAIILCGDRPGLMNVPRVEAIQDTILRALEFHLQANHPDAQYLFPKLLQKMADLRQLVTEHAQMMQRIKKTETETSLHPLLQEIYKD
Protocol: (§1) Transfection Assay Method for PPAR Receptors
(§2) HEK293 cells were grown in DMEM/F12 medium supplemented with 10% FBS and glutamine (Invitrogen) and incubated in a 5% CO2 incubator at 37° C. The cells were co-transfected using DMRIE-C reagent (Invitrogen) in serum free medium (Opti-MEM, Invitrogen) with two mammalian expression plasmids, one containing the DNA sequence coding for the ligand binding domains of either PPARα, γ or δ fused to the yeast GAL4 DNA binding domain and the other containing the promoter sequence of the yeast GAL4 (UAS) fused to the firefly luciferase cDNA reporter. The next day, the medium was changed to DMEM/F12 medium supplemented with 5% charcoal treated serum (Hyclone) and glutamine. After 6 hrs the cells were trypsinized and seeded at a density of 50,000 cells/well into 96 well plates and incubated overnight as above. The cells were then treated with test compounds or vehicle and incubated for 18-24 hrs as above. Luciferase reporter activity was measured using the Steady-Glo Luciferase Assay Kit from Promega. DMRIE-C Reagent was purchased from GIBCO Cat. No. 10459-014. OPTI-MEM I Reduced Serum Medium was purchased from GIBCO (Cat. No. 31985). Steady-Glo Luciferase Assay Kit was purchased from Promega (Part# E254B).
(§3) A variety of example compounds have been made and tested, with a range of in vitro results. Below are representative compounds and data; in some cases, where multiple EC50's are shown, multiple measurements were taken. Naturally, different compounds in Formula (I) may have not have activities identical to any one compound below.

[2] = biological target: T2, PPARα ligand binding domain fused to the yeast GAL4 DNA binding domain (Homo sapiens, UniProt Q07869); experiment: Transfection assay for PPAR receptors (GAL4-LBD luciferase reporter), PPAR alpha; format: cell-based; settings: HEK293 cells, GAL4 (UAS) luciferase reporter, 18-24 hrs
T2 construct: expressed in transfected cells; host or cells: HEK293
T2 sequence (Q07869 239-466 limits assumed): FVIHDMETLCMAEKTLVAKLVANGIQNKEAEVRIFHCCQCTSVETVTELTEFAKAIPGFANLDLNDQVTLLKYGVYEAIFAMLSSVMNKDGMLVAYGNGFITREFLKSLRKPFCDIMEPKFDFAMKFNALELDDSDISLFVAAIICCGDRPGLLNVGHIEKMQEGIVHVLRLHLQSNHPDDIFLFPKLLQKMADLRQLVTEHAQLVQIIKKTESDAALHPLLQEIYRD
Protocol: as §1, §2, §3

[3] = biological target: T3, PPARγ ligand binding domain fused to the yeast GAL4 DNA binding domain (Homo sapiens, UniProt P37231); experiment: Transfection assay for PPAR receptors (GAL4-LBD luciferase reporter), PPAR gamma; format: cell-based; settings: HEK293 cells, GAL4 (UAS) luciferase reporter, 18-24 hrs
T3 construct: expressed in transfected cells; host or cells: HEK293
T3 sequence (P37231 238-503 limits assumed): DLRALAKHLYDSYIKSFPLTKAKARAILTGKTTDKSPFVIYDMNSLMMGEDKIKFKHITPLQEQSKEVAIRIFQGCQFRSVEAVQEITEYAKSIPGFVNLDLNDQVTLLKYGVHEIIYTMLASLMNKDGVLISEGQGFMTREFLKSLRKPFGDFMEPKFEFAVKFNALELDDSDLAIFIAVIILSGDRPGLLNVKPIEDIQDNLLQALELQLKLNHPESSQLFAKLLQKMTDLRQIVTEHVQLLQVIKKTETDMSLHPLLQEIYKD
Protocol: as §1, §2
A variety of example compounds have been made and tested, with a range of in vitro results. […]

[4] = system: differentiated THP-1 monocytes; settings: cited from earlier work

EC50 [1]	EC50 [2] [nM]	EC50 [3] [nM]	SMILES	ABCA1 mRNA expression [4]	cholesterol efflux [4]
13.8 nM and 14.9 nM	548	–	CCC(COc1ccc(C(F)(F)F)cc1)CSc1ccc(OC(C)C(=O)O)c(C)c1 (stereo not shown) [Compound 1, 2-{2-Methyl-4-[2-(4-trifluoromethyl-phenoxymethyl)-butylsulfanyl]-phenoxy}-propionic acid]	–	–
9.1 nM and 11.1 nM	237	278	CCC(COc1ccc(C(F)(F)F)cc1)CSc1ccc(OC(C)(C)C(=O)O)c(C)c1 (stereo not shown) [Compound 2, 2-Methyl-2-{2-methyl-4-[2-(4-trifluoromethyl-phenoxymethyl)-butylsulfanyl]-phenoxy}-propionic acid]	–	–
34 nM and 27.5 nM	537	565	CCOC(COc1ccc(C(F)(F)F)cc1)CSc1ccc(OC(C)(C)C(=O)O)c(C)c1 (stereo not shown) [Compound 3, 2-{4-[2-Ethoxy-3-(4-trifluoromethyl-phenoxy)-propylsulfanyl]-2-methyl-phenoxy}-2-methyl-propionic acid]	–	–
–	–	–	Cc1cc(SCc2sc(-c3ccc(C(F)(F)F)cc3)nc2C)ccc1OCC(=O)O [GW501516]	induced ABCA1 mRNA expression	enhanced cholesterol efflux
